Measurements: PMC7144022, “Quinolinecarboxamides Inhibit the Replication of the Bovine Viral Diarrhea Virus by Targeting a Hot Spot for the Inhibition of Pestivirus Replication in the RNA-Dependent RNA Polymerase” (Molecules, 2020)

Columns and labels:
BVDV NADL virus = experiment: CPE-based antiviral assay, BVDV NADL in MDBK cells (MTS/PMS); details: for EC50: Bovine viral diarrhea virus isolates and strains, MDBK, 72 h; for S.I.: selectivity index, CC50 vs EC50
[1] = Cytotoxicity assay, proliferation of exponentially growing MDBK cells (MTS/PMS); format: cell-based, bovine; details: bovine
Experimental: Assays were carried out, as described previously.

[2] = sheet CSFCII#, potency relative to TO502-2403 (EC50 0.2 µM)
[3] = sheet CSFCI#, potency relative to TO505-6180 (EC50 0.07 µM)

| SMILES | EC50 (BVDV NADL virus) [µM] | S.I. (BVDV NADL virus) | fold increase (BVDV NADL virus; [2]) | CC50 at 5 days [1] [µM] | fold increase (BVDV NADL virus; [3]) |
| --- | --- | --- | --- | --- | --- |
| Cc1cccc2sc(NC(=O)c3cc(-c4ccco4)nc4ccc(C(F)(F)OF)cc34)nc12 [CSFC-79, FC(F)(OF)c1cc2c(cc1)nc(cc2C(=O)Nc1nc2c(C)cccc2s1)c1ccco1] | 2.5 | 40 | 0.08 | > 100 | – |
| Cc1ccc2nc(NC(=O)c3ccncc3)sc2c1 [CSFC-22, Cc1ccc2nc(NC(=O)c3ccncc3)sc2c1] | > 100 | 1 | – | > 100 | 0.0007 |
| Cc1ccc2nc(N(C)C(=O)c3cc(-c4ccccc4)nc4ccccc34)sc2c1 [CSFC-21, O=C(c1cc(nc2ccccc21)c1ccccc1)N(C)c1nc2ccc(C)cc2s1] | > 100 | 1 | – | > 100 | 0.0007 |
| COc1ccc2nc(NC(=O)c3cc(-c4ccc(F)cc4)nc4ccccc34)sc2c1 [CSFC-68, Fc1ccc(cc1)c3nc2ccccc2c(c3)C(=O)Nc4nc5ccc(cc5s4)OC] | 0.2 | 500 | 1.00 | > 100 | – |
| Cc1cccc2sc(NC(=O)c3cc(-c4ccco4)nc4ccc(Cl)cc34)nc12 [CSFC-84, Clc1cc2c(cc1)nc(cc2C(=O)Nc3nc4c(C)cccc4s3)c5ccco5] | 11.5 | 9 | 0.0174 | > 100 | – |
| CCOc1ccc2nc(NC(=O)c3cc(-c4ccccc4)nc4ccccc34)sc2c1 [CSFC-58, CCOc1ccc2nc(sc2c1)NC(=O)c4cc(nc3ccccc34)c5ccccc5] | 3.3 | 30 | 0.06 | > 100 | – |
| Cc1ccc2sc(NC(=O)c3cc(-c4ccccc4)nc4ccccc34)nc2c1C [CSFC-145, Cc1c(C)ccc2sc(nc12)NC(=O)c1cc(nc2ccccc21)c1ccccc1] | < 0.02 | – | – | > 100 | – |
| O=C(Nc1ccn(-c2ccc(F)cc2)n1)c1cc(-c2ccccc2)nc2ccccc12 [CSFC-128, Fc1ccc(cc1)n2ccc(n2)NC(=O)c4cc(nc3ccccc34)c5ccccc5] | 0.5 | 200 | 0.40 | > 100 | – |
| O=C(Nc1ccn(-c2ccccc2)n1)c1cc(-c2cccs2)nc2ccc(Br)cc12 [CSFC-122, O=C(Nc1ccn(n1)c2ccccc2)c4cc(nc3ccc(Br)cc34)c5cccs5] | 0.6 | 167 | 0.33 | > 100 | – |
| Cc1cccc2sc(NC(=O)c3cc(-c4cc5ccccc5o4)nc4ccccc34)nc12 [CSFC-90, Cc1cccc2sc(nc12)NC(=O)c4cc(nc3ccccc34)c5cc6ccccc6o5] | 3 | 33 | 0.07 | > 100 | – |
| Cc1ccc(-c2cc(C(=O)Nc3ccn(-c4ccccc4)n3)c3ccccc3n2)cc1 [CSFC-112, Cc1ccc(cc1)c3nc2ccccc2c(c3)C(=O)Nc4ccn(n4)c5ccccc5] | 0.1 | 1000 | 2.00 | > 100 | – |
| O=C(Nc1ccn(-c2ccccc2)n1)c1cc(-c2ccccn2)nc2ccccc12 [CSFC-96, O=C(c2cc(nc1ccccc12)c3ccccn3)Nc4ccn(n4)c5ccccc5] | 0.2 | 500 | 1.00 | > 100 | – |
| COc1ccc(-c2cc(C(=O)Nc3nc4c(C)cccc4s3)c3ccccc3n2)cc1F [CSFC-119, COc1ccc(cc1F)c3nc2ccccc2c(c3)C(=O)Nc4nc5c(C)cccc5s4] | 2.5 | 40 | 0.08 | > 100 | – |
| O=C(Nc1ccn(-c2ccccc2)n1)c1cc(-c2ccc(Cl)s2)nc2ccccc12 [CSFC-53, Clc1ccc(s1)c3nc2ccccc2c(c3)C(=O)Nc4ccn(n4)c5ccccc5] | 77.5 | 1 | 0.00258 | > 100 | – |
| O=C(Nc1nc2ccc([N+](=O)[O-])cc2s1)c1cc(-c2ccccc2)nc2ccccc12 [CSFC-12, [O-][N+](=O)c1ccc2nc(NC(=O)c3cc(nc4ccccc43)c3ccccc3)sc2c1] | > 100 | 0.5 | – | 46.8 | 0.0007 |
| Cc1cccc2sc(NC(=O)c3cc(-c4ccsc4)nc4ccccc34)nc12 [CSFC-78, Cc1cccc2sc(nc12)NC(=O)c4cc(nc3ccccc34)c5ccsc5] | 0.1 | 1000 | 2.00 | > 100 | – |
| Cc1cccc2sc(NC(=O)c3cc(-c4ccco4)nc4ccccc34)nc12 [CSFC-35, Cc1cccc2sc(nc12)NC(=O)c1cc(nc2ccccc21)c1ccco1] | 0.3 | 333 | – | > 100 | 0.23 |
| Cc1cccc2sc(NC(=O)c3cc(-c4ccc(Cl)s4)nc4ccccc34)nc12 [CSFC-48, Clc1ccc(s1)c3nc2ccccc2c(c3)C(=O)Nc4nc5c(C)cccc5s4] | 14 | 1 | 0.0143 | 14 ± 0.7 | – |
| O=C(Nc1ccn(-c2ccccc2)n1)c1cc(-c2ccco2)nc2ccccc12 [CSFC-44, O=C(Nc1ccn(n1)c2ccccc2)c4cc(nc3ccccc34)c5ccco5] | 2.3 | 10 | 0.09 | 23 | – |
| Cc1csc(-c2cc(C(=O)Nc3ccn(-c4ccccc4)n3)c3ccccc3n2)c1 [CSFC-52, Cc1cc(sc1)c3nc2ccccc2c(c3)C(=O)Nc4ccn(n4)c5ccccc5] | 1.2 | 83 | 0.17 | > 100 | – |
| O=C(Nc1ccn(-c2ccccc2)n1)c1cc(-c2cccs2)nc2ccc(F)cc12 [CSFC-93, O=C(Nc1ccn(n1)c2ccccc2)c4cc(nc3ccc(F)cc34)c5cccs5] | 0.06 | 1667 | 3.33 | > 100 | – |
| Cc1cc(C)c2sc(NC(=O)c3cc(-c4ccccc4)nc4ccccc34)nc2c1 [CSFC-149, Cc1cc2nc(NC(=O)c3cc(nc4ccccc43)c3ccccc3)sc2c(C)c1] | 0.2 | 500 | – | > 100 | 0.35 |
| Cc1cccc2sc(NC(=O)c3cc(-c4ccco4)nc4ccc(F)cc34)nc12 [CSFC-71, Fc1cc2c(cc1)nc(cc2C(=O)Nc3nc4c(C)cccc4s3)c5ccco5] | 0.1 | 1000 | 2.00 | > 100 | – |
| O=C(Nc1nc2c(F)cc(Br)cc2s1)c1cc(-c2ccccc2)nc2ccccc12 [CSFC-147, Fc1cc(Br)cc2sc(nc12)NC(=O)c1cc(nc2ccccc21)c1ccccc1] | 0.01 | – | – | 6.2 ± 1.1 | 7.00 |
| O=C(Nc1nc2ccccc2[nH]1)c1cc(-c2ccccc2)nc2ccccc12 [CSFC-3, O=C(Nc1nc2ccccc2[NH]1)c1cc(nc2ccccc21)c1ccccc1] | > 100 | 1 | – | > 100 | 0.0007 |
| Cc1cccc2sc(NC(=O)c3cc(-c4cccs4)nc4c(F)cccc34)nc12 [CSFC-101, Fc5cccc1c5nc(cc1C(=O)Nc2nc3c(C)cccc3s2)c4cccs4] | 0.3 | 77 | 0.67 | 23.2 | – |
| Cc1noc(C)c1NC(=O)c1cc(-c2ccccc2)nc2ccccc12 [CSFC-36, O=C(Nc1c(C)onc1C)c3cc(nc2ccccc23)c4ccccc4] | 47.2 | 2 | 0.00424 | > 100 | – |
